Assay results reported in patent US8143307B2, “Benzothiophen-2-carbonylguanidine derivatives, preparation thereof, and pharmaceutical composition containing the same” (Korea Research Institute of Chemical Technology, priority 2004, dated 2012).

Assays:
[1] = test system: in vivo ischemic rat heart model; assay: Cardioprotective effect on in vivo ischemic rat heart model (coronary occlusion/reperfusion, infarct size); details: 45 min occlusion, 90 min reperfusion
Description: The cardioprotective effect of the benzothiophen-2-carbonylguanidine derivatives according to the present invention in in vivo ischemic hearts was judged with regard to their antischemic effects (myocardiac infarction reduction) on rats as follows.
Each male rat (300˜450 g, the Korea Research Institute of Chemical Technology, Experimental Animal Lab) was anesthetized by intraperitoneal injection with sodium pentobarbital at a dose of 75 mg/kg. Tracheotomy was performed and a tube was inserted into the trachea for subsequent artificial ventilation with a stroke volume of 10 ml/kg and a respiratory rate of 60 breaths/min. The femoral vein and the femoral artery were cannulated for the administration of the compounds and for the measurement of blood pressures, respectively. Meanwhile, the body temperature of the rats, an important factor to influence experimental results in the ischemic myocardiac injury model, was maintained constant at 37° C. using a homeothermic blanket control unit, with a body temperature-monitoring probe inserted into the rectum. Subsequently, rats were continuously measured for mean arterial blood pressure and heart rate HR throughout the experimental time period using a Statham P23XL pressure transducer (Grass Ins., Mass., USA) and an ECG/RATE Coupler (Hugo Sachs Electronic, Germany), respectively, with all continuous changes thereof recorded by Graphtec Linearcorder WR 3310 (Hugo Sachs Electronic).
The left coronary artery was occluded according to Selye H.'s method. In detail, after the chest of each rat was partially opened by left thoracotomy, the middle finger of the left hand was pressed against the right side of the chest of the rat to thrust out the heart which was then slightly fixed with the forefinger and the thumb of the same hand. Then, immediately after the left anterior descending coronary artery (LAD) was sutured with a 5-0 silk ligature, the heart was repositioned back in the thoracic cavity with both ends of the suture positioned outside. The ends of the suture were threaded through a PE tube (PE100, 2.5 cm) and allowed to stand for 20 min for stabilization. Through the cannula inserted into the femoral vein, a vehicle or the compounds of the invention were administered and 30 min was needed for sufficient effects of the administered compounds. Cariporide was used as a control. The ends of the suture threaded through the PE tube were pulled taut with hemostatic forceps to vertically press the PE tube against the coronary artery. After occlusion for 45 min, the hemostatic forceps were removed and reperfusion was conducted for 90 min.
The coronary artery was reoccluded in the same manner as described above, followed by the intravenous injection of 2 ml of 1% Evans blue. The intravenous injection of an excess of pentobarbital killed the rats, from which the hearts were then excised. The left ventricle was removed alone from the isolated heart and transected from the cardiac apex into 5 or 6 slices. Each slice was weighed. The image of each of the heart slices was captured using a Hi-scope, a compact vision system, and analyzed for blue-stained normal areas and non-stained areas with an image analyzing program (Image Pro Plus). In each slice, the area at risk (AAR) was calculated by multiplying the ratio of the non-stained area to the total area of the slice with the weight of the slice. Sum of the individual area at risk (AAR) for each slice was divided by the total weight of the left ventricle to obtain AAR (%) according to the following mathmatical formula 1.
Separately, the heat slices were incubated in 1%. 2,3,5-triphenyltetrazolium chloride (TTC) phosphate buffer (pH 7.4), 37° C., for 15 min and fixed in 10% formalin for 20˜24 hours. In the normal area of the tissue, 2,3,5-triphenyltetrazolium chloride was reduced by the myocardial dehydrogenase in the presence of the cofactor NADH to form formazan dye, which appeared as a brick-red color. […]

[2] = biological target: T1, Human NHE-1 (Homo sapiens, UniProt P19634); assay: Inhibitory effect on NHE-1 in PS120/NHE-1 cells (recovery from intracellular acidosis, BCECF fluorescence); type: cell-based; details: human NHE-1 expressed PS120 cells; concentration at which recovery from intracellular acidosis was 50% inhibited
T1 construct: expressed in transfected cells; host or cells: CCL39-derived PS120 cells (PS120/NHE-1)
Description: The benzothiophen-2-carbonylguanidine derivatives of the present invention were examined for NHE-1 inhibitory effect in cells according to the following procedure.
Human NHE-1 was expressed in CCL39-derived PS120 cells. These human NHE-1 expressed cells were cultured in DMEM (Dulbecco's modified Eagle's medium) supplemented with 10% fetal bovine serum, 1% penicillin/streptomycin (100× solution), 1% L-glutamine (200 mM aqueous solution). The PS120/NHE-1 cells grown in 100 mm dishes were treated with trypsin at 80-90% confluency, followed by washing with PBS (phosphate buffer saline) once, and then once with an Na-free buffer (138.2 mM Choline chloride, 4.9 mM KCl, […]. 2H2O, 1.2 mM MgSO4.7H2O, 1.2 mM KH2PO4, 15 mM D-glucose, 20 mM HEPES, at pH 7.4). After centrifugation, the pellet was suspended in an Na-free buffer containing 20 mM NH4Cl and 10 μM BCECF-AM [2′,7′-bis(2-carboxyethyl)-5,6-carboxy-fluorescein acetoxymethyl ester] and incubated at 37° C. for 30 min in a CO2 incubator. After being harvested by centrifugation, the PS120/NHE-1 cells were washed once with an Na-free buffer to remove both NH4Cl and extracellular BCECF-AM, suspended at a density of 2.5×10^4 cells/10 μl and stored at 4° C. in a dark room until reuse. In each well of 96-well microplates, 180 μl of HBS (137 mM NaCl, 4.9 mM KCl, 1.5 mM CaCl2. 2H2O, 1.2 mM MgSO4.7H2O, 1.2 mM KH2PO4, 15 mM D-glucose, 20 mM HEPES, at pH 7.4) and 10 μl of DMSO or 10 μl of a solution of the compound (0.03˜10 μM) of the present invention in DMSO were placed and well mixed, after which 10 μl aliquots of the intracellular acidosis-induced PS120/NHE-1 cells were added thereto. 4 min after the cell addition, fluorescence (excitation: 485/444 nm, emission: 535 nm) was measured in the GEMINI-XS Microplate Spectrofluorometer (Molecular Devices). The fluorescence measured was converted into pH values using a high-K^+/nigericin technique. The cells in which intracellular acidosis was induced with NH4Cl prepulses, were recovered to normal pH values through the operation of NHE-1. The inhibitory effect of the compound against NHE-1 was evaluated as concentrations at which the recovery from the intracellular acidosis to a normal state was 50% inhibited (IC50 values), with cariporide used as a control.

[3] = test system: isolated ischemic rat heart; assay: Cardioprotective effect in isolated ischemic rat heart model (Langendorff); details: 10 μM, 30 min global ischemia, 30 min reperfusion
Description: Male rats (300 450 g, the Korea Research Institute of Chemical Technology, Experimental Animal Lab) were anesthetized by intraperitoneal injection with sodium pentobarbital at a dose of 100 mg/kg and were intravenously administered with heparine at a dose of 1000 U/kg, followed by the excision of the heart. In detail, a tracheotomy was performed and a tracheal cannula (PE 240) was inserted into the trachea for subsequent artificial ventilation with room air using a rodent ventilator. […] A catheter tip manometer connected to a latex balloon filled with a mixture of ethanol and distilled water (1:1 v/v) was inserted via an incision in the left atrium into the left ventricle, and the intraventricular pressure thereof transmitted to the latex balloon was measured isovolumetrically with a transducer and recorded on a recording system (Linearcorder mark 8 WR 3500) with the aid of an amplifier (Plugsys bridge amplifier). After stabilizing the heart for 15 min, the balloon volume was adjusted to create a left ventricular end-diastolic pressure (LVEDP) of 5 mmHg during the initial baseline period. The volume of the balloon was maintained until the end of the experiment. Baseline heart contraction function, spontaneous heart rate (HR) and coronary flow (CF) were determined from the left ventricular contraction interval. The left ventricular developed pressure (LVDP), which is regarded as an index of contractile function of the isolated heart, was calculated by subtracting left ventricular end-diastolic pressure (LVEDP) from left ventricular peak systolic pressure (LVSP). In contrast to the heart in the body, the Langendorff heart cannot be measured for cardiac output and thus, RPP (rate-pressure product), which is an important indirect indicator for cardiac performance, was calculated by multiplying heart rate (HR) by LVDP. Throughout the experiment, the temperature of the heart was maintained constant by […] in a 37° C. physiological solution to which 95% O2/5% CO2 was continuously supplied. The heart thus stabilized was perfursed for 10 min with a solution of the compounds of the invention or control drugs in DMSO (dimethylsulfoxide) diluted with HBS (final DMSO conc. 0.04%), or with the solvent only (a negative control; 0.04% DMSO) and then measured again for contractile function, heart rate (HR) and coronary flow (CF). The supply of perfusates was completely stopped for 30 min in order to induce global ischemia in the heart, followed by reperfusion for 30 min. The indices (LVDP, HR, LVEDP, and CF) were measured again. After the reperfusion, the total level of lactate dehydrogenase (LDH) in the reperfusates was measured using a kit and taken as an index of ischemic myocardial injury. A negative control group was treated with the solvent only while cariporide was used as a positive control.

T1 sequence (P19634 whole entry): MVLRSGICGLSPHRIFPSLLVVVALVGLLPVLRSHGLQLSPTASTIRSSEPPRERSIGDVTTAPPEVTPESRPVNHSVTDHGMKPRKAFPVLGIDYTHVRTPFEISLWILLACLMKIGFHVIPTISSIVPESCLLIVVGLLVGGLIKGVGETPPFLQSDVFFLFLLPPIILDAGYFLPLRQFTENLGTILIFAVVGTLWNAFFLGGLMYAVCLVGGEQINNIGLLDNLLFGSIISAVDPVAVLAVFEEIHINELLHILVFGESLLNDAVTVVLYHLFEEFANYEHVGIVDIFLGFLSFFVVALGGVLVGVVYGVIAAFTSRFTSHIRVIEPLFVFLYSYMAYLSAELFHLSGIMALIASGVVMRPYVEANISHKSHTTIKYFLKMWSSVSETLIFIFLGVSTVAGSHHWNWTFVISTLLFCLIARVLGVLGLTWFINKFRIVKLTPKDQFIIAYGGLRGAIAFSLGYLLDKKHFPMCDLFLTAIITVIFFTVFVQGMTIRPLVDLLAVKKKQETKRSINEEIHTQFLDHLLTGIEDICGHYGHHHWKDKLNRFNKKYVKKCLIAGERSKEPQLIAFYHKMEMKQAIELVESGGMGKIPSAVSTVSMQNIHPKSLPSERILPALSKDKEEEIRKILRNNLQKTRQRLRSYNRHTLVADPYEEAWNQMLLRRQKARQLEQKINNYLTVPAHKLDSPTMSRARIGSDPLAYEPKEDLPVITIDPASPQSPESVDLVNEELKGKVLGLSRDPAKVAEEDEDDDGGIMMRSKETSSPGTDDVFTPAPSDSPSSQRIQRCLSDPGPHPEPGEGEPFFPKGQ

SMILES: CC(C)c1ccc(C(=O)NC(=N)N)cc1S(C)(=O)=O [Cariporide, cariporide, reference compound]
- Myocardiac infarction rate (IS/AAR, %) ([1]; 0.1 mg/kg intravenous): 40.5%
- Myocardiac infarction rate (IS/AAR, %) ([1]; 0.3 mg/kg intravenous): 37.9%
- IC50 [2]: 0.68 µM
- LDH (free LDH level upon reperfusion) [3]: 19.3 u/g
- LVEDP (left ventricular end-diastolic pressure) [3]: 22.4 mmHg
- RPP (rate-pressure product (LVDP × HR) % relative to the value before ischemia induction) [3]: 69.8%

SMILES: CCc1cccc2sc(C(=O)N=C(N)N)cc12.CS(=O)(=O)O [Example 37, (4-Ethylbenzothiophene-2-Carbonyl)Guanidine Methanesulfonate]
- Myocardiac infarction rate (IS/AAR, %) ([1]; 0.1 mg/kg intravenous): 51.6%
- IC50 [2]: 0.27 µM
- LDH (free LDH level upon reperfusion) [3]: 7.1 u/g
- LVEDP (left ventricular end-diastolic pressure) [3]: 37.7 mmHg
- RPP (rate-pressure product (LVDP × HR) % relative to the value before ischemia induction) [3]: 43.4%
